Paper PMC10233829 (ACS Omega, 2023)
≈ marks a conversion by molar mass, not a printed value.

What was measured:
S. aureus NCTC 4163 = assay: MIC, twofold microdilution, standard strain; format: cell-based; conditions: Staphylococcus aureus, NCTC4163, 18 h
S. aureus ATCC 25923 = assay: MIC, twofold microdilution, standard strain; format: cell-based; conditions: Staphylococcus aureus, ATCC25923, 18 h
S. aureus ATCC 6538 = assay: MIC, twofold microdilution, standard strain; format: cell-based, Staphylococcus aureus; conditions: Staphylococcus aureus, ATCC6538; standard strain, 18 h
S. aureus ATCC 29213 = assay: MIC, twofold microdilution, standard strain; format: cell-based; conditions: Staphylococcus aureus, ATCC29213, 18 h
[1] = tested on: S. epidermidis ATCC 12228; assay: MIC, twofold microdilution, standard strain; format: cell-based; conditions: Staphylococcus epidermidis, ATCC12228, 18 h
[2] = tested on: S. epidermidis ATCC 35984; assay: MIC, twofold microdilution, standard strain; format: cell-based; conditions: Staphylococcus epidermidis, ATCC35984, 18 h
P. aeruginosa ATCC 15442 = assay: MIC, twofold microdilution, standard strain; format: cell-based, Pseudomonas aeruginosa; conditions: Pseudomonas aeruginosa, ATCC15442; standard strain, 18 h
E. coli ATCC 25922 = assay: MIC, twofold microdilution, standard strain; format: cell-based, Escherichia coli; conditions: Escherichia coli, ATCC25922; standard strain, 18 h
S. aureus 180 = assay: MIC, twofold microdilution, clinical strain; format: cell-based; conditions: Staphylococcus aureus, 18 h
S. aureus 5595 = assay: MIC, twofold microdilution, clinical strain; format: cell-based; conditions: Staphylococcus aureus, 18 h
S. aureus T5595 = assay: MIC, twofold microdilution, clinical strain; format: cell-based, Staphylococcus aureus; conditions: Staphylococcus aureus, T5595, 18 h
S. aureus T5591 = assay: MIC, twofold microdilution, clinical strain; format: cell-based, Staphylococcus aureus; conditions: Staphylococcus aureus, T5591, 18 h
S. epidermidis 4341 = assay: MIC, twofold microdilution, clinical strain; format: cell-based; conditions: Staphylococcus epidermidis, 18 h
S. epidermidis 5253 = assay: MIC, twofold microdilution, clinical strain; format: cell-based, Staphylococcus epidermidis; conditions: Staphylococcus epidermidis, 5253, 18 h
S. epidermidis KR4243/1 = assay: MIC, twofold microdilution, clinical strain; format: cell-based; conditions: Staphylococcus epidermidis, 18 h
S. pasteuri KR 4358 = assay: MIC, twofold microdilution, clinical strain; format: cell-based; conditions: Staphylococcus pasteuri, KR4358, 18 h
P. aeruginosa 37 = assay: MIC, twofold microdilution, clinical strain; format: cell-based; conditions: Pseudomonas aeruginosa, 18 h
P. aeruginosa 659 = assay: MIC, twofold microdilution, clinical strain; format: cell-based; conditions: Pseudomonas aeruginosa, 18 h
E. coli 951 = assay: MIC, twofold microdilution, clinical strain; format: cell-based; conditions: Escherichia coli, 18 h
E. coli 520 = assay: MIC, twofold microdilution, clinical strain; format: cell-based; conditions: Escherichia coli, 18 h
E. coli 600 = assay: MIC, twofold microdilution, clinical strain; format: cell-based, Escherichia coli; conditions: Escherichia coli, 600, 18 h
E. cloacae 8 = assay: MIC, twofold microdilution, clinical strain; format: cell-based, Escherichia cloacae; conditions: Enterobacter cloacae, 8; clinical strain, 18 h
K. pneumoniae 28 = assay: MIC, twofold microdilution, clinical strain; format: cell-based; conditions: Klebsiella pneumoniae, 18 h
K. pneumoniae 510 = assay: MIC, twofold microdilution, clinical strain; format: cell-based, Klebsiella pneumoniae; conditions: Klebsiella pneumoniae, 510; clinical strain, 18 h
M. tuberculosis H37Rv = assay: Tuberculostatic activity, Microplate Alamar Blue Assay (MIC); format: cell-based, Mycobacterium tuberculosis; conditions: Mycobacterium tuberculosis, H37RV; MABA; read-out: MIC M. tuberculosis H37Rv
[3] = tested on: M. tuberculosis Spec. 192; assay: as above; format: cell-based; conditions: Mycobacterium tuberculosis, MABA, read-out: MIC M. tuberculosis Spec. 192 (sensitive to tuberculostatics)
M. tuberculosis Spec 210 = assay: microbe, parasite or virus in culture; format: cell-based, Mycobacterium tuberculosis; conditions: M. tuberculosis Spec. 210
S. aureus DNA gyrase = S. aureus DNA gyrase (Staphylococcus aureus, UniProt P0A0K8+P20831); assay: biochemical; conditions: supercoiling of relaxed pBR322
Sequence of S. aureus DNA gyrase (P0A0K8 whole entry): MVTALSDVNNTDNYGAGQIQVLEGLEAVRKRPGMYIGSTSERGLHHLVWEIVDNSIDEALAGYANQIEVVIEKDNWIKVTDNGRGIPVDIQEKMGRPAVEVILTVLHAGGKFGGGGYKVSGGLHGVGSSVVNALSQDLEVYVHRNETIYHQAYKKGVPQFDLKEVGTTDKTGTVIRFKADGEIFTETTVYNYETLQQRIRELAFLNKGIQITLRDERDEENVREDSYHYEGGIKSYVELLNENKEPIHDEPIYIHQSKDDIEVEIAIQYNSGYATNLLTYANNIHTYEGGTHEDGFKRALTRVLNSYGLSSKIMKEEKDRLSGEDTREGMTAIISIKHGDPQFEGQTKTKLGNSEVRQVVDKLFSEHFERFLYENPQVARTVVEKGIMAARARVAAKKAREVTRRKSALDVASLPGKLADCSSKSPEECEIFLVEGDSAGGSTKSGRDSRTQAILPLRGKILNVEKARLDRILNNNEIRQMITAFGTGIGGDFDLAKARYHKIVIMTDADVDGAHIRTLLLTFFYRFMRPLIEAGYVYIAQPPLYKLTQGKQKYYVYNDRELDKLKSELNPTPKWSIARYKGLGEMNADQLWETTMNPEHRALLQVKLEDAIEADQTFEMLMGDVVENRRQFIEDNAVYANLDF
Sequence of S. aureus DNA gyrase (P20831 whole entry): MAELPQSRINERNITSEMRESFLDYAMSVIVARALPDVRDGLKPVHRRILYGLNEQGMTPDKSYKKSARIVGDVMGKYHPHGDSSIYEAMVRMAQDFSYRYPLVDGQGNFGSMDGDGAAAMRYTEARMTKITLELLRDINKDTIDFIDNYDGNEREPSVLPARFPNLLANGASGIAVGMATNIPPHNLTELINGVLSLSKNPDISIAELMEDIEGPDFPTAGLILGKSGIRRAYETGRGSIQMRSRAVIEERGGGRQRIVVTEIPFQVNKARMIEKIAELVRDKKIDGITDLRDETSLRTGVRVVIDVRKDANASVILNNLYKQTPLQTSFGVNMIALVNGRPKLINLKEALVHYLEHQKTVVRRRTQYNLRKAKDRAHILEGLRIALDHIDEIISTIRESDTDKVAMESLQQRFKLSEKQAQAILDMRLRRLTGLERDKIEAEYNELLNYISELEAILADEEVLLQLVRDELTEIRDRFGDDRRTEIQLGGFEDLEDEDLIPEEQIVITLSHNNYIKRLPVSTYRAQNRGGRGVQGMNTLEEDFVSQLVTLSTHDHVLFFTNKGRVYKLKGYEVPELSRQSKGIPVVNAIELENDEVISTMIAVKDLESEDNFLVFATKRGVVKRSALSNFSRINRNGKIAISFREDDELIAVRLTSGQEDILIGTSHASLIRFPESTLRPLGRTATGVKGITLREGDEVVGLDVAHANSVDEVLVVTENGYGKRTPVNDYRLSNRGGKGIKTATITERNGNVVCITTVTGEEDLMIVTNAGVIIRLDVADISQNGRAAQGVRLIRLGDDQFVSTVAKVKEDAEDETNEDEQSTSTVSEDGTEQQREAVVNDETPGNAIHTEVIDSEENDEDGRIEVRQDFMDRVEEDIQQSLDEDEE
Protocol: The enzymatic assay was carried using commercial topoisomerases type II as previously described by Alt et al.[55] with some modifications.
Briefly, 1 U of the enzyme (gyrase or topo IV, Inspiralis. Norwich, UK) isolated from S. aureus converts […] of relaxed pBR322 DNA to the supercoiled form (gyrase) or decatenates 200 ng of kinetoplast DNA (topo IV). […] The reactions were terminated by adding an equal volume of STEB buffer (40% sucrose, 100 mM Tris–HCl pH 8, 10 mM EDTA, and 0.5 mg/mL bromophenol blue), followed by extraction with 1 volume of chloroform/isoamyl alcohol (24:1). The samples were vortexed and centrifuged, and 20 μL of the aqueous phase of each sample was loaded onto a 1% agarose gel and left for 30 min prior to electrophoresis to allow diffusion of salt. […] Gels were stained with ethidium bromide and visualized under UV light in a transilluminator (ChemiDoc MP, Bio Rad).

[4] = target: T1, S. aureus topoisomerase IV (Staphylococcus aureus, UniProt P0C1S7+P0C1U9); assay: Topoisomerase IV decatenation assay; format: biochemical; conditions: decatenation of kinetoplast DNA; read-out: IC50 S. aureus topoisomerase IV (converted)
T1 construct: purchased Inspiralis, Norwich, UK
T1 sequence (P0C1U9 whole entry): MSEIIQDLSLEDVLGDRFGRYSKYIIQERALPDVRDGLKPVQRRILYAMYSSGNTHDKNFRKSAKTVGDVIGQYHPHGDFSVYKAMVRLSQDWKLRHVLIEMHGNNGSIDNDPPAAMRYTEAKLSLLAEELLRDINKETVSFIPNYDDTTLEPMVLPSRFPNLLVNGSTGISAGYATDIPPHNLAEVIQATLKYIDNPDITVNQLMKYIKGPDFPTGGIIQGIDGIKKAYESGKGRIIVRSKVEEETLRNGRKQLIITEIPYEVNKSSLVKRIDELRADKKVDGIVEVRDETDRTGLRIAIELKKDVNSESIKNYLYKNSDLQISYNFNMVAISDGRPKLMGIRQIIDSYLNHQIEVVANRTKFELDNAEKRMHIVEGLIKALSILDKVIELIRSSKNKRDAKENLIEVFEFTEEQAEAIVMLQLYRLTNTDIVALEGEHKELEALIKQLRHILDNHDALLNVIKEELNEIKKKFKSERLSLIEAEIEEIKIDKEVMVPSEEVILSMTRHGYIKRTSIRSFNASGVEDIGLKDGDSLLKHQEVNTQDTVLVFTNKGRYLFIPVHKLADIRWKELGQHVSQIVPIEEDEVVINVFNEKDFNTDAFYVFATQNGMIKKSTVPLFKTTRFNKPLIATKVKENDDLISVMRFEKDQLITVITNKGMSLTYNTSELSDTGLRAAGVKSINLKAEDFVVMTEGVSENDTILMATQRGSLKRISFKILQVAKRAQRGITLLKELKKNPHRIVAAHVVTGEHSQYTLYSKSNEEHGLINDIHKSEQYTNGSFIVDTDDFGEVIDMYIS
T1 sequence (P0C1S7 whole entry): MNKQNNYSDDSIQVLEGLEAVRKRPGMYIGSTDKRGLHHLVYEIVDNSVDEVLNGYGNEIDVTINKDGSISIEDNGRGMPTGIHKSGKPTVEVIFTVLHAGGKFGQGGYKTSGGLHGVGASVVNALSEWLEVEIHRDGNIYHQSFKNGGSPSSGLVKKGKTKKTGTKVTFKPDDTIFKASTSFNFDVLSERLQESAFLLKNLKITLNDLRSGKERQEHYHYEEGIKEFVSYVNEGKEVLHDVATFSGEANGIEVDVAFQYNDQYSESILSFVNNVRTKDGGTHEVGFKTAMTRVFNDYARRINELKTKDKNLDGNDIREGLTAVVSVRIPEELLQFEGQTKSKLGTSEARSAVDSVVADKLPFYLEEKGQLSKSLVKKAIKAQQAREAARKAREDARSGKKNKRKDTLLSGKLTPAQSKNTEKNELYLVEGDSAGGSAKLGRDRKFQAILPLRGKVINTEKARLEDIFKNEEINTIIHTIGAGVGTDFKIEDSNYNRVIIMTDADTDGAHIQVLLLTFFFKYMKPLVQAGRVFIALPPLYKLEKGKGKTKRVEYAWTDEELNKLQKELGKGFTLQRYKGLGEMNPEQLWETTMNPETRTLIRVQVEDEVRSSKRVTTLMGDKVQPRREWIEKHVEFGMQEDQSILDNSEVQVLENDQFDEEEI
Protocol: Briefly, 1 U of the enzyme (gyrase or topo IV, Inspiralis. Norwich, UK) isolated from S. aureus converts 0.5 mg of relaxed pBR322 DNA to the supercoiled form (gyrase) or decatenates 200 ng of kinetoplast DNA (topo IV). […] The reactions were terminated by adding an equal volume of STEB buffer (40% sucrose, 100 mM Tris–HCl pH 8, 10 mM EDTA, and 0.5 mg/mL bromophenol blue), followed by extraction with 1 volume of chloroform/isoamyl alcohol (24:1). The samples were vortexed and centrifuged, and 20 μL of the aqueous phase of each sample was loaded onto a 1% agarose gel and left for 30 min prior to electrophoresis to allow diffusion of salt. […] Gels were stained with ethidium bromide and visualized under UV light in a transilluminator (ChemiDoc MP, Bio Rad).

PC3 cells = assay: MTT assay, cytotoxic activity; format: cell-based, human; conditions: Homo sapiens, PC-3, 72 h, MTT, 72 h
Procedure, shortened: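 Cytotoxicity readout: relative MTT level (%), i.e. absorbance of compound-treated PC3 cells divided by that of untreated controls, ×100. Cultures were kept in a humidified 37 °C, 5% CO2 incubator.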

[5] = MTT assay, cytotoxic activity; format: cell-based; conditions: human, HaCaT cells (immortal keratinocytes); MTT, 72 h, normal cell line; read-out: IC50 HaCaT
Procedure, shortened: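 Viability was calculated as A/B × 100%, with A the absorbance of treated samples and B that of untreated controls, from MTT reduction. Cells were cultured in a humidified 37 °C/5% CO2 incubator.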

[6] = tested on: Staphylococci (standard strains); assay: MIC, standard Gram-positive strains as a panel; format: cell-based, S. aureus, S. epidermidis
[7] = tested on: P. aeruginosa ATCC 15442 and E. coli ATCC 25922; assay: MIC, standard Gram-negative rods as a panel; format: cell-based; conditions: P. aeruginosa ATCC 15442, E. coli ATCC 25922; read-out: MIC against standard Gram-negative rods (range over strains)
[8] = tested on: clinical bacterial strains; assay: MIC, clinical isolates as groups of strains; format: cell-based; conditions: S. aureus 180 and 5595

## C=CC(=O)N1CCN(c2cc3c(cc2F)c(=O)c(C(=O)O)cn3C2CC2)CC1 [Compound 1, 7-(4-Acryloyl-piperazin-1-yl)-1-cyclopropyl-6-fluoro-4-oxo-1,4-dihydro-quinoline-3-carboxylic Acid]
S. aureus NCTC 4163
  MIC: 0.05 µg/mL (≈ 0.13 µM)
S. aureus ATCC 25923
  MIC: 0.05 µg/mL (≈ 0.13 µM)
S. aureus ATCC 6538
  MIC: 0.05 µg/mL (≈ 0.13 µM)
S. aureus ATCC 29213
  MIC: 0.1 µg/mL (≈ 0.259 µM)
[1]
  MIC: 0.1 µg/mL (≈ 0.259 µM)
[2]
  MIC: 0.05 µg/mL (≈ 0.13 µM)
P. aeruginosa ATCC 15442
  MIC: 3.2 µg/mL (≈ 8.3 µM)
E. coli ATCC 25922
  MIC: 0.1 µg/mL (≈ 0.259 µM)
S. aureus 180
  MIC: 0.8 µg/mL (≈ 2.08 µM)
S. aureus 5595
  MIC: 0.8 µg/mL (≈ 2.08 µM)
S. aureus T5595
  MIC: 0.4 µg/mL (≈ 1.04 µM)
S. aureus T5591
  MIC: 0.8 µg/mL (≈ 2.08 µM)
S. epidermidis 4341
  MIC: > 25.6 µg/mL
S. epidermidis 5253
  MIC: > 25.6 µg/mL
S. epidermidis KR4243/1
  MIC: 0.4 µg/mL (≈ 1.04 µM)
S. pasteuri KR 4358
  MIC: 0.4 µg/mL (≈ 1.04 µM)
P. aeruginosa 37
  MIC: > 25.6 µg/mL
P. aeruginosa 659
  MIC: > 25.6 µg/mL
E. coli 951
  MIC: > 25.6 µg/mL
E. coli 520
  MIC: 1.6 µg/mL (≈ 4.15 µM)
E. coli 600
  MIC: > 25.6 µg/mL
E. cloacae 8
  MIC: 3.2 µg/mL (≈ 8.3 µM)
K. pneumoniae 28
  MIC: > 25.6 µg/mL
K. pneumoniae 510
  MIC: > 25.6 µg/mL
M. tuberculosis H37Rv
  MIC: 4 µg/mL (≈ 10.4 µM)
[3]
  MIC: 4 µg/mL (≈ 10.4 µM)
M. tuberculosis Spec 210
  fold more effective than the reference tuberculostatics: 8–32 fold
S. aureus DNA gyrase
  IC50: 23.9 µM
[4]
  IC50: 25.9 µM
PC3 cells
  IC50: 68.7 ± 3.4 µM
[5]
  IC50 at 72 h: 100 ± 1.2 µM
[6]; S. aureus NCTC 4163 and ATCC 25923
  times higher potency than CP: 5–10 times
[6]; read-out: MIC toward standard Staphylococci (range over strains)
  MIC: 0.05 to 0.4 µg/mL (≈ 0.13 to 1.04 µM)
[6]; standard Gram-positive strains of Table 1
  fold more active than CP toward standard Staphylococci: 1.25–10 fold
[7]
  MIC: ≤ 1 µg/mL
[8]
  share of CP inhibitory activity: 62.5%
